From US20240002368A1 (QILU REGOR THERAPEUTICS INC., priority 2020, published 2024) come the findings set out here.

Usually IC50 stands for the concentration that inhibits the measured activity by half.

The first assay deals with STING pathway. The assay can be described thus: IFN β reporter assay (HTRF, 2′3′-cGAMP-stimulated THP1 cells). The assay is classed as cell-based, human. The settings on record: Homo sapiens, THP-1, THP1 cells, 5 μM 2′3′-cGAMP, IFN β secretion inhibition; class symbols; read-out: IFN β reporter activity IC50. As to the method: STING pathway deactivation by the compounds described herein was measured using THP1 cells. The THP1 Cells (obtained from ATCC, Cat #TIB-202) were maintained in RPMI-1640 (Gibco, Cat #22400105), 10% FBS, 1% Pen-Strep, 0.05 mM 2-mercaptoethanol. For STING activation, 2′3′-cGAMP (MW 718.38, obtained from Invivogen) was used and prepared in serum-free RPMI-1640 media. Growth media: RPMI-1640 (HEPES, glutamine), 10% FBS, 1% Pen-Strep, 0.05 mM 2-mercaptoethanol. Assay media: RPMI-1640 (HEPES, glutamine), 0.5% FBS. 2′3′-cGAMP: Dissolve 2′3′-cGAMP to 10 mM stock in H2O.
The cells were prepared and seeded at 100K, 90 μL/well with assay media in cell culture plate (Greiner 655180). The compounds were added in 96-well tissue culture plates by Tecan D300e for a final concentration of 0.00137-3 μM.
Lipo2000/3000 and 2′3′-cGAMP stock solutions were diluted respectively in serum-free RPMI-1640 media. The diluted 2′3′-cGAMP and Lipo (V/V=1:1) were mixed and stood for 15 min at room temperature. 10 μL 2,3-cGAMP/Lipofectamine (10×) was transferred to the 96-well assay plate with a final 2′3′-cGAMP concentration of 5 μM. The cell plates were centrifuged at 1000 rpm for 5 min after incubating at 37° C., 5% CO2 overnight.
All reagents (human IFN beta kit, Cisbio 62HIFNBPEG) were warmed to room temperature for at least 30 min before the assay. The instructions of the kit were followed to prepare the detection media. 14 μL of cell supernatants was transferred into their dedicated wells in 384-well plate. Then 2 μL of the activation reagent solution and 4 μL of the mixed antibody solution were added to all wells. The plate was sealed and incubated for 3 h at room temperature.
The HTRF signal was read in Envision (PerkinElmer). IFN β reporter activity was then measured. The calculated ratio is the signal at 665 nm/signal at 615 nm. IC50 values are calculated by using standard methods known in the art.
For orientation: In a reporter assay the amount or activity of a reporter protein is the signal.
Take `O=C(Nc1c[nH]c2c(F)cccc12)c1n[nH]c2cc(C(F)(F)F)ccc12` [Example 6]: the IC50 lay within 0.2 to 1 µM.

As to `C[C@@H]1COCCN1c1cc2c(cc1F)c(C(=O)Nc1c[nH]c3ccc(F)cc13)cn2C` [Example 50], the half-maximal inhibitory concentration (IC50) lay within 0.2 to 1 µM.

Turning to `CN1CCC(c2ccc3c(C(=O)Nc4c[nH]c5ccc(F)cc45)cn(C)c3c2)CC1` [Example 118], the IC50 was over 1 µM.

As to `O=C(Nc1c[nH]c2cc(F)c(F)cc12)c1c[nH]c2ccccc12` [Example 64], the IC50 was 0.05 to 0.2 µM.

`Cn1cc(C(=O)Nc2c[nH]c3ccc(F)cc23)c2ccc(OCC(F)(F)F)nc21` [Example 74]: the IC50 was 0.05 to 0.2 µM.

For the compound `NC(=O)c1ccc2c(C(=O)N(CC(F)(F)F)c3c[nH]c4cc(F)ccc34)n[nH]c2c1` [Example 89, N-(6-fluoro-1H-indol-3-yl)-N-(2,2,2-trifluoroethyl)-1H-indazole-3,6-dicarboxamide], the IC50 was in the range of 0.2 to 1 µM.

`O=C(Nc1c[nH]c2cc(F)c(F)cc12)c1c[nH]c2cc(C(F)(F)F)ccc12` [Example 52]: the half-inhibitory concentration (IC50) is under 0.05 µM.

Consider `O=C(Nc1c[nH]c2ccc(F)cc12)c1n[nH]c2cc(Oc3ccncc3)ccc12` [Example 62], for which the IC50 is over 1 µM.

For the compound `Cn1cc(C(=O)Nc2c[nH]c3ccc(P(C)(C)=O)cc23)c2ccc(C(F)(F)F)cc21` [Example 21], the concentration for half-maximal inhibition (IC50) is over 1 µM.

`O=C(Nc1c[nH]c2ccc(F)cc12)c1n[nH]c2cc(C(F)(F)F)ccc12` [Example 8]: the concentration for half-maximal inhibition (IC50) is under 0.05 µM.

For the compound `C[C@H](NCc1cc2c(cc1F)c(C(=O)Nc1c[nH]c3ccc(F)cc13)cn2C)C(F)(F)F` [Example 104], the IC50 is under 0.05 µM.

Take `Cn1cc(C(=O)Nc2c[nH]c3ccc(N4CCNCC4=O)cc23)c2ccc(C(F)(F)F)cc21` [Example 108, 1-methyl-N-[5-(2-oxopiperazin-1-yl)-1H-indol-3-yl]-6-(trifluoromethyl)indole-3-carboxamide]: the IC50 is over 1 µM.

Consider `O=C(Nc1c[nH]c2cccc(F)c12)c1n[nH]c2cc(C(F)(F)F)ccc12` [Example 26], for which the IC50 was 0.05 to 0.2 µM.

For `O=C(Nc1c[nH]c2ccc(F)cc12)c1cc2ccc(C(F)(F)F)cc2[nH]1` [Example 78], the IC50 is 0.05 to 0.2 µM.

With `O=C(Nc1c[nH]c2ccc(F)cc12)c1cnn2cc(Br)ccc12` [Example 24], the IC50 was under 0.05 µM.

With `O=C(Nc1c[nH]c2cc(F)c(F)cc12)c1cc2ccc(C(F)(F)F)cc2[nH]1` [Example 79], the IC50 is 0.05 to 0.2 µM.

Turning to `Cn1cc(C(=O)Nc2c[nH]c3ccc(F)cc23)c2cc(F)c(CN3CCC(F)(F)CC3)cc21` [Example 98], the IC50 is under 0.05 µM.

On to `Cn1cc(C(=O)Nc2c[nH]c3ccc(F)cc23)c2cc(F)c(CNC3CCC(F)(F)CC3)cc21` [Example 100], for which the IC50 is 0.05 to 0.2 µM.

Consider `O=C(Nc1c[nH]c2ccccc12)c1n[nH]c2cc(Br)ccc12` [Example 9], for which the IC50 is under 0.05 µM.

For the compound `O=C(O)c1ccc2c(C(=O)Nc3c[nH]c4ccc(F)cc34)n[nH]c2c1` [Example 88, 3-[(5-fluoro-1H-indol-3-yl)carbamoyl]-1H-indazole-6-carboxylic acid], the IC50 is over 1 µM.

For `O=C(Nc1c[nH]c2ccc(F)cc12)c1n[nH]c2cc(CNCC(F)(F)F)ccc12` [Example 93], the IC50 is 0.05 to 0.2 µM.

For the compound `O=C(Nc1c[nH]c2ccccc12)c1n[nH]c2cc(C(F)(F)F)ccc12` [Example 31], the IC50 is under 0.05 µM.

For `Cn1cc(C(=O)Nc2c[nH]c3ccc(F)cc23)c2ccc(C3CCOCC3)cc21` [Example 73], the IC50 was in the range of 0.05 to 0.2 µM.

As for `O=C(Nc1c[nH]c2ccccc12)c1n[nH]c2cc(C3CCOCC3)ccc12` [Example 16], the IC50 lay in the range of 0.05 to 0.2 µM.

As to `Cn1cc(C(=O)Nc2c[nH]c3ccc(F)cc23)c2cc(F)c(C3CCOCC3)cc21` [Example 81], the IC50 is under 0.05 µM.

Regarding `CN(Cc1cc2c(cc1F)c(C(=O)Nc1c[nH]c3ccc(F)cc13)cn2C)CC(F)(F)F` [Example 92, 5-fluoro-N-(5-fluoro-1H-indol-3-yl)-1-methyl-6-[[methyl(2,2,2-trifluoroethyl)amino]methyl]indole-3-carboxamide], the IC50 lay in the range of 0.05 to 0.2 µM.

As for `C[C@H]1COCCN1c1cc2c(cc1F)c(C(=O)Nc1c[nH]c3ccc(F)cc13)cn2C` [Example 49], the IC50 was 0.2 to 1 µM.

`Cn1cc(C(=O)Nc2c[nH]c3ccc(C#N)cc23)c2ccc(C3=CCOCC3)cc21` [Example 54]: the IC50 lay in the range of 0.2 to 1 µM.

In the case of `C[C@@H](NCc1cc2c(cc1F)c(C(=O)Nc1c[nH]c3ccc(F)cc13)cn2C)C(F)(F)F` [Example 105], the IC50 is under 0.05 µM.

With `Cn1cc(C(=O)Nc2c[nH]c3ccc(C(N)=O)cc23)c2ccc(C(F)(F)F)cc21` [Example 34], the IC50 was over 1 µM.

As for `O=C(Nc1c[nH]c2ccccc12)c1cc2ccc(C(F)(F)F)cc2[nH]1` [Example 56], the IC50 lay within 0.05 to 0.2 µM.

With `Cn1cc(C(=O)Nc2c[nH]c3ccc(F)cc23)c2ccc(C3=CCOCC3)cc21` [Example 72], the half-maximal inhibitory concentration (IC50) was 0.05 to 0.2 µM.

Take `CNCc1ccc2[nH]cc(NC(=O)c3cn(C)c4cc(C(F)(F)F)ccc34)c2c1` [Example 110, 1-methyl-N-(5-((methylamino)methyl)-1H-indol-3-yl)-6-(trifluoromethyl)-1H-indole-3-carboxamide]: the half-inhibitory concentration (IC50) was over 1 µM.

Staying with this assay, now noted: Homo sapiens, THP-1, THP1 cells, 5 μM 2′3′-cGAMP, IFN β secretion inhibition; numeric values (comparators); read-out: IFN β reporter activity IC50.
On to `CN(C(=O)c1n[nH]c2cc(C(F)(F)F)ccc12)c1c[nH]c2ccc(F)cc12` [Comparator E, reference compound], for which the concentration for half-maximal inhibition (IC50) is 12 µM.

In the case of `O=C(Nc1c[nH]c2cc(F)c(F)cc12)c1cnc2[nH]ncc2c1` [Comparator A, reference compound], the IC50 is over 30 µM.

With `O=C(Nc1c[nH]c2cc(F)c(F)cc12)c1nc2ccncc2s1` [Comparator B, reference compound], the IC50 was over 3 µM.

The assay is the same for the next values; noted with them: Homo sapiens, THP-1, read-out: IFN β reporter activity IC50.
With `O=C(Nc1c[nH]c2ccc(F)cc12)c1cn(C2CC2)c2cc(C(F)(F)F)ccc12` [Example 67, 1-cyclopropyl-N-(5-fluoro-1H-indol-3-yl)-6-(trifluoromethyl)indole-3-carboxamide], the 50% inhibitory concentration (IC50) was under 0.05 µM.

As to `Cc1[nH]c2ccc(F)cc2c1NC(=O)c1cn(C)c2cc(C(F)(F)F)ccc12` [Comparator C, reference compound], the IC50 came to 11 µM.

Take `Cn1nc(C(=O)Nc2c[nH]c3ccccc23)c2ccc(C(F)(F)F)cc21` [Example 1, N-(1H-indol-3-yl)-1-methyl-6-(trifluoromethyl)indazole-3-carboxamide]: the IC50 fell in the range of 0.05 to 0.2 µM.

As for `Cn1cc(C(=O)Nc2c[nH]c3ccc(F)cc23)c2cc(C(F)(F)F)cnc21` [Example 22], the IC50 is 0.2 to 1 µM.

For the compound `O=C(Nc1c[nH]c2ccc(F)cc12)c1cn([C@H]2CCOC2)c2cc(C(F)(F)F)ccc12` [Example 77], the IC50 is 0.05 to 0.2 µM.

For the compound `Cn1nc(C(=O)Nc2c[nH]c3ccccc23)c2ccc(Br)cc21` [Example 4], the IC50 is 0.05 to 0.2 µM.

For `CN1CC=C(c2cc3c(cc2Cl)c(C(=O)Nc2c[nH]c4ccc(C#N)cc24)cn3C)CC1` [Example 119, 5-chloro-N-(5-cyano-1H-indol-3-yl)-1-methyl-6-(1-methyl-3,6-dihydro-2H-pyridin-4-yl)indole-3-carboxamide], the IC50 is over 1 µM.

The assay is the same for the next values; noted with them: THP1 cells, 5 μM 2′3′-cGAMP, IFN β secretion inhibition; class symbols; read-out: IFN β reporter activity IC50.
With `O=C(Nc1c[nH]c2ccccc12)c1n[nH]c2cc(C(F)(F)F)ccc12` [Example 2], the IC50 fell in the range of 0.05 to 0.2 µM.
